Assay results: patent US7491794B2, “Macrocyclic compounds as inhibitors of viral replication” (Intermune, Inc., priority 2003, dated 2009)

Target: T1, NS3-NS4 protease (Hepatitis C virus genotype 1a, UniProt P27958)
T1 construct: Recombinant E. coli or Baculovirus full-length NS3 was diluted to 3.33 μM with assay buffer; made in house; host or cells: E. coli or baculovirus (BV) system
Assay: NS3-NS4 protease assay / NS3 inhibition assay, Section D
Type: biochemical
Method: NS3-NS4 Protease Assay NS3 complex formation with NS4A-2.
Recombinant E. coli or Baculovirus full-length NS3 was diluted to 3.33 μM with assay buffer and transferred material to an eppendorf tube and place in water bath in 4° C. refrigerator. The appropriate amount of NS4A-2 to 8.3 mM in assay buffer was added to equal the volume of NS3 in step 2.1.1 (conversion factor −3.8 mg/272 μL assay buffer). The material was transferred to an eppendorf tube and place in water bath in 4° C. refrigerator.
After equilibration to 4° C., equal volumes of NS3 and NS4A-2 solutions were combined in an eppendorf tube, mix gently with a manual pipettor, and incubate mixture for 15 minutes in the 4° C. water bath. Final concentrations in the mixture are 1.67 μM NS3, 4.15 mM NS4A-2 (2485-fold molar excess NS4A-2).
After 15 minutes at 4° C., the NS3/NS4A-2 eppendorf tube was removed and placed in a room temperature water bath for 10 minutes. NS3/NS4A-2 was alliquoted at appropriate volumes and store at −80° C. (E. coli NS3 run at 2 nM in assay, aliquot at 25 μL. BV NS3 run at 3 nM in assay, aliquot at 30 μL).
Sample compounds were dissolved to 10 mM in DMSO then diluted to 2.5 mM (1:4) in DMSO.
The E. coli. NS3/NS4A-2 was diluted to 4 nM NS3 (1:417.5 of 1.67 μM stock−18 μL 1.67 μM stock+7497 μL assay buffer).
The BV NS3/NS4A-2 was diluted to 6 nM NS3 (1:278.3 of 1.67 μM stock−24 μL 1.67 μM stock+6655 μL assay buffer).
Using the manual multichannel pipettor, careful not to introduce bubbles into the plate, add 50 μL assay buffer to wells A01-H01 of a black Costar 96-well polypropylene storage plate.
Using the manual multichannel pipettor, careful not to introduce bubbles into the plate, add 50 μL of diluted NS3/NS4A-2 from step 2.2.6 to wells A02-H12 of plate in step 2.2.7.
Using the manual multichannel pipettor, careful not to introduce bubbles into the plate, transfer 25 μL of the wells in drug dilution plate in step 2.2.5 to corresponding wells in assay plate in step 2.2.8. Change tips on multichannel pipettor for each row of compounds transferred.
Using the manual multichannel pipettor, careful not to introduce bubbles into the plate, mix the wells from the assay plate in step 2.2.9 by aspirating and dispensing 35 μL of the 75 μL in each well five times. Change tips on multichannel pipettor for each row of wells mixed.
Cover plate with a polystyrene plate lid and pre-incubate the plate from step 2.2.10 containing NS3 protease and sample compounds 10 minutes at room temperature.
While plate from step 2.2.11 is pre-incubating, dilute RETS1 substrate in a 15 mL polypropylene centrifuge tube.
Dilute RETS1 substrate to 8 μM (1:80.75 of 646 μM stock−65 μL 646 μM stock+5184 μL assay buffer).
After the plate in step is done pre-incubating, and using the manual multichannel, add 25 μL of substrate to all wells on the plate. Quickly mix the plate as in step 2.2.10, mixing 65 μL of the 100 μL in the wells.
Read the plate in kinetic mode on the Molecular Devices SpectraMax Gemini XS plate reader. Reader settings: Read time: 30 minutes, Interval: 36 seconds, Reads: 51, Excitation k: 335 nm, Emission k: 495 nm, cutoff: 475 nm, Automix: off, Calibrate: once, PMT: high, Reads/well: 6, Vmax pts: 21 or 28/51 depending on length of linearity of reaction.
IC50s are determined using a four parameter curve fit equation, and converted to Ki's using the following Km's:
where Ki=IC50/(1+[S]/Km))

T1 sequence (P27958 1027-1657): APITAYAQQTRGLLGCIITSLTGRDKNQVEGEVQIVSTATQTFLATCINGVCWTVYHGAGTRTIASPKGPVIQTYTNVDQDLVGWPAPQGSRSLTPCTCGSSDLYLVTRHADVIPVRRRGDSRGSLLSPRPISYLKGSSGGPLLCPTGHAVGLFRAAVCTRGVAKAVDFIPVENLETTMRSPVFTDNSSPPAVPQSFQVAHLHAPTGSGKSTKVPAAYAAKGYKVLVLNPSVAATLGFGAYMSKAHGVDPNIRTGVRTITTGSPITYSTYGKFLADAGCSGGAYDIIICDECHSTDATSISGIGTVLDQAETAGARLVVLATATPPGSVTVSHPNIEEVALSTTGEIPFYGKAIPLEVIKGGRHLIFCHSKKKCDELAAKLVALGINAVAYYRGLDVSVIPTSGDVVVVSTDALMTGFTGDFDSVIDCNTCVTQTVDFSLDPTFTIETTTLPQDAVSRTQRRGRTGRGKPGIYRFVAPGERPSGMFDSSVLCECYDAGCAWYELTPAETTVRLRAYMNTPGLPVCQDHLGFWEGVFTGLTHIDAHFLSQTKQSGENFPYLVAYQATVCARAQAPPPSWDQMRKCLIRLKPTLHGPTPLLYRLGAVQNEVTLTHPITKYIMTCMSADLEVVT

| Compound | IC50 [nM] |
| --- | --- |
| CC(C)(C)OC(=O)N[C@H]1CCCCC/C=C\[C@@H]2C[C@@]2(C(=O)NS(=O)(=O)C2CC2)NC(=O)[C@@H]2C[C@@H](NC(=O)c3ccc(F)c(F)c3)CN2C1=O [Example 15] | < 100 |
| CC(C)(C)NC(=O)N[C@H]1CCCCC/C=C\[C@@H]2C[C@@]2(C(=O)NS(=O)(=O)C2CC2)NC(=O)[C@@H]2C[C@@H](NC(=O)c3cc4ccccc4s3)CN2C1=O [Example 54] | < 100 |
| CC(C)(C)OC(=O)N[C@H]1CCCCC/C=C\[C@@H]2C[C@@]2(C(=O)NS(=O)(=O)C2CC2)NC(=O)[C@@H]2C[C@@H](NC(=O)c3cc4cc(Cl)ccc4o3)CN2C1=O [Example 40] | < 100 |
| CC(C)(C)OC(=O)N[C@H]1CCCCC/C=C\[C@@H]2C[C@@]2(C(=O)NS(=O)(=O)C2CC2)NC(=O)[C@@H]2C[C@@H](NC(=O)c3csc(-c4ccccc4)n3)CN2C1=O [Example 24] | < 100 |
| CCc1ccc(C(=O)N[C@@H]2C[C@H]3C(=O)N[C@]4(C(=O)NS(=O)(=O)C5CC5)C[C@H]4/C=C\CCCCC[C@H](NC(=O)OC(C)(C)C)C(=O)N3C2)cc1 [Example 3] | < 100 |
| CC(C)(C)OC(=O)N[C@H]1CCCCC/C=C\[C@@H]2C[C@@]2(C(=O)NS(=O)(=O)C2CC2)NC(=O)[C@@H]2C[C@@H](NC(=O)c3c(Cl)cc(Cl)cc3Cl)CN2C1=O [Example 5] | < 100 |
| CC(C)(C)OC(=O)N[C@H]1CCCCC/C=C\[C@@H]2C[C@@]2(C(=O)NS(=O)(=O)C2CC2)NC(=O)[C@@H]2C[C@@H](NC(=O)c3ccccc3)CN2C1=O [Example 2] | < 100 |
| COc1ccc(C(=O)N[C@@H]2C[C@H]3C(=O)N[C@]4(C(=O)NS(=O)(=O)C5CC5)C[C@H]4/C=C\CCCCC[C@H](NC(=O)OC4CCCC4)C(=O)N3C2)cc1C(F)(F)F [Example 57] | < 100 |
| COc1cccc2cc(C(=O)N[C@@H]3C[C@H]4C(=O)N[C@]5(C(=O)NS(=O)(=O)C6CC6)C[C@H]5/C=C\CCCCC[C@H](NC(=O)OC(C)(C)C)C(=O)N4C3)oc12 [Example 42] | < 100 |
| CC(C)(C)OC(=O)N[C@H]1CCCCC/C=C\[C@@H]2C[C@@]2(C(=O)O)NC(=O)[C@@H]2C[C@@H](NC(=O)c3ccc4ccccc4c3)CN2C1=O [Example 62] | < 1000 |
| CN(C)c1ccc(C(=O)N[C@@H]2C[C@H]3C(=O)N[C@]4(C(=O)NS(=O)(=O)C5CC5)C[C@H]4/C=C\CCCCC[C@H](NC(=O)OC(C)(C)C)C(=O)N3C2)cn1 [Example 13] | < 100 |
| CC(C)(C)CC(=O)N[C@H]1CCCCC/C=C\[C@@H]2C[C@@]2(C(=O)NS(=O)(=O)C2CC2)NC(=O)[C@@H]2C[C@@H](NC(=O)c3sc4ccccc4c3Cl)CN2C1=O [Example 51] | < 100 |
| COc1ccc(C(=O)N[C@@H]2C[C@H]3C(=O)N[C@]4(C(=O)NS(=O)(=O)C5CC5)C[C@H]4/C=C\CCCCC[C@H](NC(=O)NC4CCCC4)C(=O)N3C2)cc1C(F)(F)F [Example 58] | < 100 |
| O=C(CCC(F)(F)F)N[C@H]1CCCCC/C=C\[C@@H]2C[C@@]2(C(=O)NS(=O)(=O)C2CC2)NC(=O)[C@@H]2C[C@@H](NC(=O)c3sc4ccccc4c3Cl)CN2C1=O [Example 50] | < 100 |
| CC(C)(C)OC(=O)N[C@H]1CCCCC/C=C\[C@@H]2C[C@@]2(C(=O)NS(=O)(=O)C2CC2)NC(=O)[C@@H]2C[C@@H](NC(=O)c3cnc4ccccc4c3)CN2C1=O [Example 29] | < 100 |
| CC(C)(C)OC(=O)N[C@H]1CCCCC/C=C\[C@@H]2C[C@@]2(C(=O)NS(=O)(=O)C2CC2)NC(=O)[C@@H]2C[C@@H](NC(=O)c3cnc4ccccc4n3)CN2C1=O [Example 30] | < 100 |
| CC(C)(C)OC(=O)N[C@H]1CCCCC/C=C\[C@@H]2C[C@@]2(C(=O)NS(=O)(=O)C2CC2)NC(=O)[C@@H]2C[C@@H](NC(=O)c3cc4ccccc4o3)CN2C1=O [Example 39] | < 100 |
| CC(C)(C)OC(=O)N[C@H]1CCCCC/C=C\[C@@H]2C[C@@]2(C(=O)NS(=O)(=O)C2CC2)NC(=O)[C@@H]2C[C@@H](NC(=O)c3ccc(C#N)cc3)CN2C1=O [Example 9] | < 100 |

| Compound | IC50 [nM] |
| --- | --- |
| COc1cc2cc(C(=O)N[C@@H]3C[C@H]4C(=O)N[C@]5(C(=O)NS(=O)(=O)C6CC6)C[C@H]5/C=C\CCCCC[C@H](NC(=O)OC(C)(C)C)C(=O)N4C3)[nH]c2cc1OC [Example 37] | < 100 |
| CC(C)(C)OC(=O)N[C@H]1CCCCC/C=C\[C@@H]2C[C@@]2(C(=O)NS(=O)(=O)C2CC2)NC(=O)[C@@H]2C[C@@H](NC(=O)c3csc(-c4ccc(Cl)cc4)c3)CN2C1=O [Example 23] | < 100 |
| CC(C)(C)OC(=O)N[C@H]1CCCCC/C=C\[C@@H]2C[C@@]2(C(=O)O)NC(=O)[C@@H]2C[C@@H](NC(=O)c3cc4ccccc4o3)CN2C1=O [Example 66] | < 1000 |
| CC(C)(C)OC(=O)N[C@H]1CCCCC/C=C\[C@@H]2C[C@@]2(C(=O)NS(=O)(=O)C2CC2)NC(=O)[C@@H]2C[C@@H](NC(=O)c3csc(-c4ccc(Cl)cc4)n3)CN2C1=O [Example 26] | < 100 |
| CC(C)(C)OC(=O)N[C@H]1CCCCC/C=C\[C@@H]2C[C@@]2(C(=O)NS(=O)(=O)C2CC2)NC(=O)[C@@H]2C[C@@H](NC(=O)c3csc(-c4ccccc4Cl)n3)CN2C1=O [Example 25] | < 100 |
| CC(C)(C)OC(=O)N[C@H]1CCCCC/C=C\[C@@H]2C[C@@]2(C(=O)NS(=O)(=O)C2CC2)NC(=O)[C@@H]2C[C@@H](NC(=O)c3ccc(-c4ccc(Cl)cc4)o3)CN2C1=O [Example 22] | < 100 |
| CC(C)(C)OC(=O)N[C@H]1CCCCC/C=C\[C@@H]2C[C@@]2(C(=O)NS(=O)(=O)C2CC2)NC(=O)[C@@H]2C[C@@H](NC(=O)c3ccc4ccccc4c3)CN2C1=O [Example 27] | < 100 |
| Cn1c(C(=O)N[C@@H]2C[C@H]3C(=O)N[C@]4(C(=O)NS(=O)(=O)C5CC5)C[C@H]4/C=C\CCCCC[C@H](NC(=O)OC(C)(C)C)C(=O)N3C2)cc2ccccc21 [Example 35] | < 100 |
| CC(C)(C)OC(=O)N[C@H]1CCCCC/C=C\[C@@H]2C[C@@]2(C(=O)O)NC(=O)[C@@H]2C[C@@H](NC(=O)c3sc4cc(F)ccc4c3Cl)CN2C1=O [Example 65] | < 1000 |
| CC(C)(C)OC(=O)N[C@H]1CCCCC/C=C\[C@@H]2C[C@@]2(C(=O)O)NC(=O)[C@@H]2C[C@@H](NC(=O)c3cc4ccccc4[nH]3)CN2C1=O [Example 63] | < 1000 |
| COc1ccc(C(=O)N[C@@H]2C[C@H]3C(=O)N[C@]4(C(=O)NS(=O)(=O)C5CC5)C[C@H]4/C=C\CCCCC[C@H](NC(=O)OC(C)(C)C)C(=O)N3C2)cc1C(F)(F)F [Example 8] | < 100 |
| CC(C)(C)OC(=O)N[C@H]1CCCCC/C=C\[C@@H]2C[C@@]2(C(=O)NS(=O)(=O)C2CC2)NC(=O)[C@@H]2C[C@@H](NC(=O)c3cc4ccccc4[nH]3)CN2C1=O [Example 31] | < 100 |
| CC(C)(C)OC(=O)N[C@H]1CCCCC/C=C\[C@@H]2C[C@@]2(C(=O)NS(=O)(=O)C2CC2)NC(=O)[C@@H]2C[C@@H](NC(=O)c3ccc(S(N)(=O)=O)cc3)CN2C1=O [Example 17] | < 100 |
| COc1ccc2oc(C(=O)N[C@@H]3C[C@H]4C(=O)N[C@]5(C(=O)NS(=O)(=O)C6CC6)C[C@H]5/C=C\CCCCC[C@H](NC(=O)OC(C)(C)C)C(=O)N4C3)cc2c1 [Example 41] | < 100 |
| CC(C)(C)OC(=O)N[C@H]1CCCCC/C=C\[C@@H]2C[C@@]2(C(=O)NS(=O)(=O)C2CC2)NC(=O)[C@@H]2C[C@@H](NC(=O)c3sc4cc(F)ccc4c3Cl)CN2C1=O [Example 44] | < 100 |
| CN(C)c1ccc(C(=O)N[C@@H]2C[C@H]3C(=O)N[C@]4(C(=O)NS(=O)(=O)C5CC5)C[C@H]4/C=C\CCCCC[C@H](NC(=O)OC(C)(C)C)C(=O)N3C2)cc1 [Example 11] | < 100 |
| COc1ccc2[nH]c(C(=O)N[C@@H]3C[C@H]4C(=O)N[C@]5(C(=O)NS(=O)(=O)C6CC6)C[C@H]5/C=C\CCCCC[C@H](NC(=O)OC(C)(C)C)C(=O)N4C3)cc2c1 [Example 33] | < 100 |
